Active and inactive are the calls of the source. No cut-off for these calls is given here. Numbered stars: 1 amine (or outer) side, 2 acyl side, 3 side chain; on linkers, the order of the positions; unused ones are H or OH. Square brackets hold non-standard residues; d marks the D form. Peptide text beside a SMILES is read from it. * marks the point of attachment. X2 = CCOP(=O)(Cc1ccc(C[C@H](N[*:1])C(=O)[*:2])cc1)OCC; Phe(4-NO2) = N[C@@H](Cc1ccc([N+](=O)[O-])cc1)C(=O)O; Phe(4-N3) = [N-]=[N+]=Nc1ccc(C[C@H](N)C(=O)O)cc1; Phe(3,4-(OMe)2) = COc1ccc(C[C@H](N)C(=O)O)cc1OC; Phe(3,4-Cl2) = N[C@@H](Cc1ccc(Cl)c(Cl)c1)C(=O)O; Phe(4-tBu) = CC(C)(C)c1ccc(C[C@H](N)C(=O)O)cc1; Phe(4-Cl) = N[C@@H](Cc1ccc(Cl)cc1)C(=O)O; Phe(4-F) = N[C@@H](Cc1ccc(F)cc1)C(=O)O; Phe(4-I) = N[C@@H](Cc1ccc(I)cc1)C(=O)O; 1Nal = N[C@@H](Cc1cccc2ccccc12)C(=O)O; Bta = N[C@@H](Cc1csc2ccccc12)C(=O)O; Oxazole4CO(2-Me) = Cc1nc(C(=O)*)co1; hTyr = N[C@@H](CCc1ccc(O)cc1)C(=O)O; hPhe = N[C@@H](CCc1ccccc1)C(=O)O; 4Pal = N[C@@H](Cc1ccncc1)C(=O)O; Nle = CCCC[C@H](N)C(=O)O; 2Furoyl = O=C(c1ccco1)*

The values that follow come from ChEMBL document CHEMBL1137449, “A refined agonist pharmacophore for protease activated receptor 2” (Bioorg Med Chem Lett, 2007).

For assay [1], the target named is T1, Proteinase-activated receptor 2 (Homo sapiens, UniProt P55085).
T1 sequence (P55085 whole entry): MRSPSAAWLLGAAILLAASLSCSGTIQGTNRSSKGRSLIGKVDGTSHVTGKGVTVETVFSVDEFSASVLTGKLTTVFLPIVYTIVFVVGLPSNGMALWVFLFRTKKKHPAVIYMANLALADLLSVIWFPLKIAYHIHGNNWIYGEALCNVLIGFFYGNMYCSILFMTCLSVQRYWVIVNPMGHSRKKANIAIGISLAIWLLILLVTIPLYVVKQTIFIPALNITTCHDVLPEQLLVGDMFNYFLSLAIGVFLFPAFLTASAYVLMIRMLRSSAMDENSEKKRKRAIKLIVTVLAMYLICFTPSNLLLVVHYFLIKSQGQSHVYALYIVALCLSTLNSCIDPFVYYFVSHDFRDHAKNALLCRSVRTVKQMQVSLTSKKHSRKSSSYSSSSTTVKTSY
Put plainly: Agonist activity at PAR2 expressed in human HT29 cells assessed as intracellular calcium release. The format is functional, cell-based, HT-29. (In general: Calcium assays in cells follow changes in intracellular calcium, usually with a dye or a luminescent sensor.)

The target of assay [2] is Proteinase-activated receptor 2 (Homo sapiens) (UniProt P55085). The assay is described as follows: Agonist activity at PAR2 expressed in 2-furoyl-LIGRLI-NH2 treated human HT29 cells assessed as intracellular calcium response. It is filed as functional, cell-based. As to conditions: HT-29.

Turning to `CC[C@H](C)[C@H](NC(=O)[C@H](CCc1ccccc1)NC(=O)[C@H](CCCNC(=N)N)NC(=O)CNC(=O)[C@@H](NC(=O)[C@H](CC(C)C)NC(=O)[C@@H](N)CO)[C@@H](C)CC)C(N)=O` (H-SLIGR[hPhe]I-NH2), the EC50 (usually the concentration at which the effect is half-maximal) in assay [1] came out at 1.8 µM. With `CCCC[C@H](NC(=O)[C@H](CC(C)C)NC(=O)[C@H](CCCNC(=N)N)NC(=O)CNC(=O)[C@@H](NC(=O)[C@H](CC(C)C)NC(=O)[C@@H](N)CO)[C@@H](C)CC)C(N)=O` (H-SLIGRL[Nle]-NH2), in assay [1], the EC50 was found to be 1.2 µM. Regarding `CC[C@H](C)[C@H](NC(=O)[C@H](CC(C)C)NC(=O)[C@@H](N)CO)C(=O)NCC(=O)N[C@@H](CCCNC(=N)N)C(=O)N[C@@H](CC(C)C)C(N)=O` (H-SLIGRL-NH2), the concentration giving a half-maximal response (EC50) in assay [1] was 4.2 µM. For `CC[C@H](C)[C@H](NC(=O)[C@H](COc1ccc([N+](=O)[O-])cc1)NC(=O)[C@H](CCCNC(=N)N)NC(=O)CNC(=O)[C@@H](NC(=O)[C@H](CC(C)C)NC(=O)[C@@H](N)CO)[C@@H](C)CC)C(N)=O`, the EC50 in assay [1] came to 2.8 µM.

As to `CCOP(=O)(Cc1ccc(C[C@H](NC(=O)[C@H](CCCNC(=N)N)NC(=O)CNC(=O)[C@@H](NC(=O)[C@H](CC(C)C)NC(=O)[C@@H](N)CO)[C@@H](C)CC)C(=O)N[C@H](C(N)=O)[C@@H](C)CC)cc1)OCC` (H-SLIGR[X2]I-NH2), the EC50 in assay [1] is 1.3 µM. With `CC[C@H](C)[C@H](NC(=O)[C@H](CC(C)C)NC(=O)[C@@H](N)CO)C(=O)NCC(=O)N[C@@H](CCCNC(=N)N)C(=O)N[C@@H](CC(C)C)C(=O)N[C@@H](Cc1ccc(O)cc1)C(N)=O` (H-SLIGRLY-NH2), the EC50 in assay [1] is 1.2 µM.

With `CC[C@H](C)[C@H](NC(=O)[C@H](Cc1csc2ccccc12)NC(=O)[C@H](CCCNC(=N)N)NC(=O)CNC(=O)[C@@H](NC(=O)[C@H](CC(C)C)NC(=O)[C@@H](N)CO)[C@@H](C)CC)C(N)=O` (H-SLIGR[Bta]I-NH2), the EC50 in assay [1] is 0.3 µM. Same read-out and setting: next, `CC[C@H](C)[C@H](NC(=O)[C@H](CC(C)C)NC(=O)[C@H](CCCN=C(N)N)NC(=O)CNC(=O)[C@@H](NC(=O)[C@H](CC(C)C)NC(=O)[C@@H](N)CO)[C@@H](C)CC)C(N)=O` (H-SLIGRLI-NH2): 0.7 µM; `CC[C@H](C)[C@H](NC(=O)[C@H](CC(C)C)NC(=O)[C@@H](N)CO)C(=O)NCC(=O)N[C@@H](CCCNC(=N)N)C(=O)N[C@@H](CC(C)C)C(=O)N[C@@H](Cc1cccc2ccccc12)C(N)=O` (H-SLIGRL[1Nal]-NH2): 1.1 µM; `CC[C@H](C)[C@H](NC(=O)[C@H](CC(C)C)NC(=O)[C@@H](N)CO)C(=O)NCC(=O)N[C@@H](CCCNC(=N)N)C(=O)N[C@@H](Cc1ccc([N+](=O)[O-])cc1)C(N)=O` (H-SLIGR[Phe(4-NO2)]-NH2): 0.6 µM. As to `CC[C@H](C)[C@H](NC(=O)[C@H](Cc1ccncc1)NC(=O)[C@H](CCCNC(=N)N)NC(=O)CNC(=O)[C@@H](NC(=O)[C@H](CC(C)C)NC(=O)[C@@H](N)CO)[C@@H](C)CC)C(N)=O` (H-SLIGR[4Pal]I-NH2), the concentration for a half-maximal effect (EC50) in assay [1] stood at 1.9 µM. Consider `CC[C@H](C)[C@H](NC(=O)[C@H](Cc1ccc(OC)c(OC)c1)NC(=O)[C@H](CCCNC(=N)N)NC(=O)CNC(=O)[C@@H](NC(=O)[C@H](CC(C)C)NC(=O)[C@@H](N)CO)[C@@H](C)CC)C(N)=O` (H-SLIGR[Phe(3,4-(OMe)2)]I-NH2), for which, in assay [1], the half-maximal effective concentration (EC50) is 1.3 µM. Still for that read-out and setting: as for `CC[C@H](C)[C@H](NC(=O)[C@H](Cc1ccc(C(C)(C)C)cc1)NC(=O)[C@H](CCCNC(=N)N)NC(=O)CNC(=O)[C@@H](NC(=O)[C@H](CC(C)C)NC(=O)[C@@H](N)CO)[C@@H](C)CC)C(N)=O` (H-SLIGR[Phe(4-tBu)]I-NH2), the figure is 0.6 µM; as for `CC[C@H](C)[C@H](NC(=O)[C@H](CC(C)C)NC(=O)c1coc(C)n1)C(=O)NCC(=O)N[C@@H](CCCNC(=N)N)C(=O)N[C@@H](Cc1ccc(I)cc1)C(N)=O` ({Oxazole4CO(2-Me)}-LIGR[Phe(4-I)]-NH2), 0.32 µM; as for `CC[C@H](C)[C@H](NC(=O)[C@H](Cc1ccc(N=[N+]=[N-])cc1)NC(=O)[C@H](CCCNC(=N)N)NC(=O)CNC(=O)[C@@H](NC(=O)[C@H](CC(C)C)NC(=O)[C@@H](N)CO)[C@@H](C)CC)C(N)=O` (H-SLIGR[Phe(4-N3)]I-NH2), 2.5 µM. The same measure, in the same setting: as for `CC[C@H](C)[C@H](NC(=O)[C@H](Cc1ccc(I)cc1)NC(=O)[C@H](CCCNC(=N)N)NC(=O)CNC(=O)[C@@H](NC(=O)[C@H](CC(C)C)NC(=O)[C@@H](N)CO)[C@@H](C)CC)C(N)=O` (H-SLIGR[Phe(4-I)]I-NH2), the figure is 0.6 µM; as for `CC[C@H](C)[C@H](NC(=O)[C@H](CC(C)C)NC(=O)[C@@H](N)CO)C(=O)NCC(=O)N[C@@H](CCCNC(=N)N)C(=O)N[C@@H](CC(C)C)C(=O)N[C@@H](CCc1ccc(O)cc1)C(N)=O` (H-SLIGRL[hTyr]-NH2), 0.6 µM.

Turning to `CC[C@H](C)[C@H](NC(=O)[C@H](Cc1ccc([N+](=O)[O-])cc1)NC(=O)[C@H](CCCNC(=N)N)NC(=O)CNC(=O)[C@@H](NC(=O)[C@H](CC(C)C)NC(=O)[C@@H](N)CO)[C@@H](C)CC)C(N)=O` (H-SLIGR[Phe(4-NO2)]I-NH2), the outcome in assay [2] was inactive. Further, the EC50 in assay [1] amounted to 0.4 µM. `CC[C@H](C)[C@H](NC(=O)[C@H](CC(C)C)NC(=O)[C@@H](N)CO)C(=O)NCC(=O)N[C@@H](CCCNC(=N)N)C(=O)N[C@@H](CC(C)C)C(=O)N[C@@H](Cc1ccc(F)cc1)C(N)=O` (H-SLIGRL[Phe(4-F)]-NH2): in assay [1], the EC50 amounted to 2 µM.

Turning to `CC[C@H](C)[C@H](NC(=O)[C@H](Cc1ccc(Cl)c(Cl)c1)NC(=O)[C@H](CCCN=C(N)N)NC(=O)CNC(=O)[C@@H](NC(=O)[C@H](CC(C)C)NC(=O)[C@@H](N)CO)[C@@H](C)CC)C(N)=O` (H-SLIGR[Phe(3,4-Cl2)]I-NH2), the EC50 in assay [1] amounted to 0.3 µM. On the same count and under the same terms, next, `CC[C@H](C)[C@H](NC(=O)[C@H](CC(C)C)NC(=O)c1ccco1)C(=O)NCC(=O)N[C@@H](CCCNC(=N)N)C(=O)N[C@@H](Cc1ccc([N+](=O)[O-])cc1)C(N)=O` (2Furoyl-LIGR[Phe(4-NO2)]-NH2): 0.17 µM. On the same count and under the same terms, as for `CC[C@H](C)[C@H](NC(=O)[C@H](Cc1ccc(Cl)cc1)NC(=O)[C@H](CCCNC(=N)N)NC(=O)CNC(=O)[C@@H](NC(=O)[C@H](CC(C)C)NC(=O)[C@@H](N)CO)[C@@H](C)CC)C(N)=O` (H-SLIGR[Phe(4-Cl)]I-NH2), the figure is 0.5 µM.
